We go through one compound from publication PMC6158189, “A pharmacological probe identifies cystathionine β-synthase as a new negative regulator for ferroptosis” (Cell Death & Disease, 2018).

One assay relates to H22 cells. The assay can be described thus: cell viability (CellTiter 96 Aqueous One). Type of assay: cell-based, mouse. On the procedure:
To measure cell viability and cytotoxicity, HepG2, HEK293T, Huh-7, H22, Panc-28, HCT116 and MDA-MB-231 cells were seeded at a density of ~ 2 × 10^4 cells per well in 96-well plates (Coring, NY, USA) for one day, followed by incubation with DMSO or various concentrations of tested compound for indicated times. Then, the cells were collected to measure the cell viability using the CellTiter 96® Aqueous One Solution Cell Proliferation Assay (Promega, G3581) according to the standard protocols.
Figure S11. The effects of CH004 on cell viability in various types of cancer cell lines. (A) Dose-dependent curves of CH004 on cell viability of HepG2 cells (▲), HEK293T cells (○). Percentages of cell viability of CH004 obtained in Figure 4a were fitted to the non-linear equation using GraphPad Prism 5 to get the IC50 values of CH004 in respective cell lines. Means ± SDs (n=3). […] (B) MDA-MB-231 (breast cancer cell cline), HCT116 (colon cancer), Panc-28 cells (pancreas cancer), Huh7 cells (hepatocellular carcinoma) and H22 (mouse liver cancer) were incubated with DMSO (control) or indicated concentrations of CH004 for 24 h in a 96-well plate before assessing cell viability using the CellTiter96® Aqueous One Solution Cell Proliferation Assay (Promega). The data are shown as percentages of control (DMSO, 100%). Means ± SDs (n=3). (C) The dose-dependent curve of CH004 on cell viability. […]

The subject of a further assay is HEK293T cells. The assay can be described thus: cell death, FITC Annexin V kit, flow cytometry. The class given is cell-based. Conditions: 40 μM, 12 h. On the procedure: Fig. 4 CH004 arrests the cell cycle at the S phase. a CH004 reduces the cell viability of HEK293T and HepG2 cells. HEK293T or HepG2 cells were treated with indicated concentrations of CH004 for 24 h before the cell number was analyzed using the CellTiter96® Aqueous One Solution Cell Proliferation Assay (Promega, Materials and Methods). The means at each concentration of one representative experiment are shown as percentages of DMSO (control, 100%). Means ± SDs (n = 3). b Overexpression of hCBS or knock-down of hCBS counteracts the growth inhibition exerted by CH004 in HEK293T cells. Indicated HEK293T stable cell lines were treated with the CH004 or DMSO for 24 h. Then, the cell viability was quantified with the CellTiter 96® Aqueous One Solution Cell Proliferation Assay under the standard protocol (Promega). […] The efficacy for CBS overexpression and knock-down in HEK293T cells was determined by Western blotting using an anti-CBS antibody (3E1, 1:2000; Abnova). c CH004 induces cell death in HEK293T and HepG2 cells. […] HEK293T cells were incubated with indicated compounds for 12 h, and the DNA content was quantified with propidium iodide to analyze the cell cycle distribution by flow cytometry (e). The cell cycle distributions for HEK293T-shNT and HEK293T-shCBS cells were accordingly analyzed and are shown in f. […]

Assay [1] has as its system HEK293T cells expressing CBS Q222A mutant. In words: cell viability of HEK293T stable line expressing CBS Q222A. Type of assay: cell-based. The settings on record: 10 µM, 24 h. On the procedure:
Figure S15. The mode of actions for CH004 in cells. […] Indicated HEK293T stable cell lines were treated with CH004 at a concentration of 10 µM for 24 h, and the cell viability was then measured using the CellTiter96® Aqueous One Solution Cell Proliferation Assay (Promega). Means ± SDs (n=3). (B-C) CH004 or erastin triggers ferroptosis in mouse embryonic fibroblasts (MEF). WT MEF cells were treated with CH004 or erastin at indicated concentrations in the presence or the absence of 500 µM DFO for 24 h before measuring the lipid ROS with 2 μM BODIPY® 581/591 C11 (Materials and methods). […] Erastin at micromolar concentrations were incubated with HepG2 cells for 24 h before measuring the lipid ROS (see above and Materials and methods). […] Means ± SDs (n=3). […] CH004 or erastin at a concentration of 20 µM was incubated with HepG2 cells for 48 h or 72 h in the presence or the absence of 100 µM DFO. The cell viability was accordingly quantified using the CellTiter96® Aqueous One Solution Cell Proliferation Assay (Promega) and the results were shown as percentages of DMSO (control, 100%). Means ± SDs (n=3). All the experiments were independently repeated at least twice and one representative result is present. Table S1 The inhibitory effects of CH004 on purified hCBS, hCSE and hDDC.

On to `Cn1nc(Cc2ccccc2)nc2c(=O)n(C)c(=O)nc1-2` [CH004, 3-benzyl-1,6-dimethylpyrimido[5,4-e][1,2,4]triazine-5,7(1H,6H)-dione], for which the 50% inhibitory concentration (IC50) in the assay on H22 cells (24 h) was approximately 13 µM; with H22 cells (Mus musculus, H22, 24 h) it was 12.9 ± 0.7 µM. The “increase in cell death” value in the assay on HEK293T cells is on record as ~ 30%. Moreover, the “cell death triggered by CH004 in cells expressing CH004-insensitive CBS Q222A” value in assay [1] is on record as “partially rescues”.
